Measured values published in patent US10898613B2, “Hyaluronic acid gel with a divalent zinc cation” (Nestlé Skin Health SA, priority 2016, dated 2021).

Experiments:
[1] = Rheology (elastic modulus G′ within the LVR) of HA gel formulations after autoclaving; type: physicochemical; settings: after autoclaving (F0~19); 1 mM Zn salt, HA 20 mg/mL
Procedure: The rheological properties of the formulations were analyzed using an Ahres G2 reometer (measure system PP 40, gap 1.00 mm). Initially a strain sweep was made to find the linear viscoelastic region (LVR) and then the viscoelastic properties were measured within the LVR.

[2] = Zinc release from gels, USP-paddle apparatus with gel containers, Zn content by ICP; type: physicochemical; settings: zinc released from HA gels of Example 4 with 1 mM zinc salt; 600 ml release medium, 30 rpm, 37° C.
Procedure: The zinc release from the gels was measured by the USP-paddle apparatus using special gel containers in which the gel was placed. A gel containing 1 mM ZnCl2 was manufactured according to Example 1. The gel was filled into 7 gel containers with a fixed volume of 1 ml. The geometry of the filled gel was a cylinder […] in diameter and 3 mm deep. The gels were covered by a mesh-size plastic net (PA80 m=200 mesh, AB Derma) and a coarse stainless steel net, care was taken to assure that no air was trapped between the gel and the plastic net.
Each gel container was immersed in 600 ml thermostated release medium, stirred at 30 rpm and maintained at 37° C. using a Distek Evolution 6100 (North Brunswick, N.J.). At predetermined time points, gel containers were removed and the Zn content in the container was determined using ICP.
Gels prepared according to example 4 containing zinc chloride (1 mM), zinc gluconate (1 mM) and zinc citrate (1 mM) respectively were analyzed as described in Example 7.

Compound	Effect of Zn on G′ of the gel versus reference swelled in buffer only [1]	time for 25% released [2] [h]
zinc gluconate	stabilizing effect	~24
O=C([O-])CC(O)(CC(=O)[O-])C(=O)[O-].O=C([O-])CC(O)(CC(=O)[O-])C(=O)[O-].[Zn+2].[Zn+2].[Zn+2] [zinc citrate]	stabilizing effect	~3
[Cl-].[Cl-].[Zn+2] [zinc chloride]	stabilizing effect	~75
